Like-named read-outs stand apart in the source and are kept apart here.
Key:
[1] = tested on: HCT-116; assay: Cytotoxicity assay (SRB), HCT-116; assay type: cell-based; settings: Homo sapiens, HCT-116, 72 h, HCT116 cells, SRB, read-out: In Vitro Cellular Activity IC50 HCT116
Method in brief: (§1)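 Protein staining with sulforhodamine B after cold TCA fixation served as the survival endpoint (A540, relative to untreated cells). Before staining, cells were incubated with compound at 37 °C, 7% CO2 for 3 days, or 6 days for BT474.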

[2] = tested on: LoVo; assay: Cytotoxicity assay (SRB), LoVo; assay type: cell-based; settings: Homo sapiens, LoVo, 72 h, LoVo cells, SRB, read-out: In Vitro Cellular Activity IC50 LOVO
Method in brief: as §1

[3] = tested on: MCF-7; assay: Cytotoxicity assay (SRB), MCF-7; assay type: cell-based; settings: Homo sapiens, MCF7, 72 h, MCF-7 cells, SRB, read-out: In Vitro Cellular Activity IC50 MCF-7
Method in brief: as §1

[4] = tested on: BT474; assay: Cytotoxicity assay (SRB), BT474; assay type: cell-based
Method in brief: as §1

[5] = target: T1, cyclin D1/cdk 4 enzyme (Homo sapiens, UniProt P11802); assay: CDK4 ELISA kinase assay (phospho-Rb ser 795 detection); assay type: biochemical
T1 construct: made in house; host or cells: Sf9 insect cells, recombinant baculovirus
Method in brief: (§2)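 GST-Rb C-terminal fragment coated on plates; partially purified Sf9-expressed cyclin D1/CDK4, cyclin E/CDK2 or cyclin B/CDK1 with 200 μM ATP, pH 7.5 HEPES/MgCl2 buffer, 1 h at 30 °C; screen compound final 10 μg/ml. Phospho-Rb Ser795 detected by antibody ELISA (TMB, A450); % of control, IC50 from background-subtracted inhibition curves.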

[6] = target: T2, cyclin E/CDK2 enzyme (Homo sapiens, UniProt P24941); assay: CDK2 ELISA kinase assay (phospho-Rb ser 795 detection); assay type: biochemical
T2 construct: made in house; host or cells: Sf9 insect cells, recombinant baculovirus
Method in brief: as §2

[7] = target: T3, cyclin B/CDK1 enzyme (Homo sapiens, UniProt P06493); assay: CDK1 ELISA kinase assay (phospho-Rb ser 795 detection); assay type: biochemical
T3 construct: purchased New England BioLabs; host or cells: Sf9 insect cells, recombinant baculovirus
Method in brief: as §2

[8] = Homo sapiens, BT-474, 144 h, BT474 cells, SRB, 6 days; read-out: In Vitro Cellular Activity IC50 BT474
[9] = In Vitro Enzyme Assays, 200 μM ATP, read-out: CDK4 IC50
[10] = In Vitro Enzyme Assays, read-out: CDK2 IC50
[11] = In Vitro Enzyme Assays, read-out: CDK1 IC50
[12] = Homo sapiens, BT-474, 144 h, BT474 cells, 6 days, SRB; read-out: In Vitro Cellular Activity IC50 BT474
[13] = In Vitro Enzyme Assay, cyclin D1/cdk 4, read-out: CDK4 IC50
[14] = In Vitro Enzyme Assay, cyclin E/CDK2, read-out: CDK2 IC50
[15] = In Vitro Enzyme Assay, cyclin B/CDK1, read-out: CDK1 IC50

T3 sequence (P06493 whole entry): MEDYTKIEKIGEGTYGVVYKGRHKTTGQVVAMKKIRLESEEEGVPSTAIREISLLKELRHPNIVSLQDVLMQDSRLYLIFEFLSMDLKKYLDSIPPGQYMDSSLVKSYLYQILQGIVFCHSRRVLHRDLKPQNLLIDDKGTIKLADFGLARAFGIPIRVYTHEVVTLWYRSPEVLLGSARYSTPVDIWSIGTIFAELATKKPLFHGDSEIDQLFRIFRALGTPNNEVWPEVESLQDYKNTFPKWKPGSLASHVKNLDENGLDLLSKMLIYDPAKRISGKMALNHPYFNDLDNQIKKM
T3 sequence (P14635 whole entry partner): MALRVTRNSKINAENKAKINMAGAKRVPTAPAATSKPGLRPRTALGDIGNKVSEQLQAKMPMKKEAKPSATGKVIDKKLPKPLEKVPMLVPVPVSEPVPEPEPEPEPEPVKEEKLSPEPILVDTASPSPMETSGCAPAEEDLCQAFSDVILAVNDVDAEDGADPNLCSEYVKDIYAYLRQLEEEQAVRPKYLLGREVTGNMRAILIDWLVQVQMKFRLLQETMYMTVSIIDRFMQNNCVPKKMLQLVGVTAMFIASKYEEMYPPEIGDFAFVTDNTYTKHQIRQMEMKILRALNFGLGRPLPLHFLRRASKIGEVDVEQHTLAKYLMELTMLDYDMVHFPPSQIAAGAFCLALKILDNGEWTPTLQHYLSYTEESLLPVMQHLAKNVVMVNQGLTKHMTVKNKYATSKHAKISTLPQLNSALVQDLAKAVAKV
T1 sequence (P11802 whole entry, species assumed): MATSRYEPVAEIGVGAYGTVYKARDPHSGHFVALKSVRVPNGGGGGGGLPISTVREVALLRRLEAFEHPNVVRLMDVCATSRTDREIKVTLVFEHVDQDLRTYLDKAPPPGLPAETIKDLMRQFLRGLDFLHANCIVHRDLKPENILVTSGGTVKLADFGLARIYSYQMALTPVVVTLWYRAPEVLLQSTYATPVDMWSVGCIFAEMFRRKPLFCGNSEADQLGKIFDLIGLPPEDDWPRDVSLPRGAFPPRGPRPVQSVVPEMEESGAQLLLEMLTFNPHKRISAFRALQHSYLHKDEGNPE
T1 sequence (P24385 whole entry partner, species assumed): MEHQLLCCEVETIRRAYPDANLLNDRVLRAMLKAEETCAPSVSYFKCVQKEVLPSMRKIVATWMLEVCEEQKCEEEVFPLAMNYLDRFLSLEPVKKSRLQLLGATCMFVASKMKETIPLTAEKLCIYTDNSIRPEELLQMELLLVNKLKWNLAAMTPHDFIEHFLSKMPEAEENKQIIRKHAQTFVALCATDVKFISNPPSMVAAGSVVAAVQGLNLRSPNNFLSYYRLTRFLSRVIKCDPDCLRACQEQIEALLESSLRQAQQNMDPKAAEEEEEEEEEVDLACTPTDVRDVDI

C/C=C/C(=O)Nc1ccc2c(c1)/C(=C/Nc1ccc(N3CCN(C)CC3)cc1)C(=O)NC2=O [Example 384, (2E)-N-[(4Z)-4-({[4-(4-Methylpiperazin-1-yl)phenyl]amino}methylene)-1,3-dioxo-1,2,3,4-tetrahydroisoquinolin-6-yl]but-2-enamide] gave an IC50 ([1]; three days) of 12 µM, an IC50 ([2]; three days) of 19 µM and an IC50 ([3]; three days) of 24 µM. For the same compound, the IC50 [4, 8] was 26 µM, the IC50 [5, 9] was > 50 µM and the IC50 [6, 10] was > 50 µM. For the same compound, the IC50 [7, 11] was 38.8 µM.

Compound COc1cccc(CC=Cc2ccc3c(c2)C(=CNCc2ccc(O)c(O)c2)C(=O)NC3=O)c1O [Example 804, 4-[(3,4-Dihydroxy-benzylamino)-methylene]-6-[3-(2-hydroxy-3-methoxy-phenyl)-propenyl]-4H-isoquinoline-1,3-dione] has an IC50 ([1]; 3 days) of 6.1 µM, an IC50 ([2]; 3 days) of 12.4 µM and an IC50 ([3]; 3 days) of 9.8 µM. It also gave an IC50 [4, 12] of 9.7 µM, an IC50 [5, 13] of 1 µM and an IC50 [6, 14] of 18 µM. It also gave an IC50 [7, 15] of 37.1 µM.

O=C1NC(=O)c2ccc(Br)cc2/C1=C/NCCN1CCNCC1 [Example 307, (Z)-6-Bromo-4-((2-(piperazin-1-yl)ethylamino)methylene)isoquinoline-1,3(2H,4H)-dione] gave an IC50 ([1]; three days) of 23 µM, an IC50 ([2]; three days) of 28 µM and an IC50 ([3]; three days) of 25 µM. For the same compound, the IC50 [4, 8] was 46 µM, the IC50 [5, 9] was 9.8 µM and the IC50 [6, 10] was 38 µM. For the same compound, the IC50 [7, 11] was > 50 µM.

CC(CN(C)C)N1CCN(c2ccc(N/C=C3\C(=O)NC(=O)c4ccc(I)cc43)cc2)CC1 (stereo not drawn) [Example 400, (4Z)-4-{[(4-{4-[2-(Dimethylamino)-1-methylethyl]piperazin-1-yl}phenyl)amino]methylene}-6-iodoisoquinoline-1,3(2H,4H)-dione] showed an IC50 ([1]; 3 days) of 2.9 µM, an IC50 ([2]; 3 days) of 8.6 µM and an IC50 ([3]; 3 days) of 8.7 µM. For the same compound, the IC50 [4, 12] was 9.33 µM, the IC50 [5, 9] was 0.34 µM and the IC50 [6, 10] was > 50 µM. The IC50 [7, 11] was > 50 µM.

For O=C1NC(=O)c2ccc(Br)cc2/C1=C/Nc1ccc2c(c1)CCN2 [Example 214, (4Z)-6-Bromo-4-[(2,3-dihydro-1H-indol-5-ylamino)methylene]isoquinoline-1,3(2H,4H)-dione], the IC50 ([1]; three days) was 39 µM, the IC50 ([2]; three days) was > 50 µM and the IC50 ([3]; three days) was 14 µM. For the same compound, the IC50 [4, 8] was 6.8 µM, the IC50 [5, 9] was 17.6 µM and the IC50 [6, 10] was 6.3 µM. The IC50 [7, 11] was > 50 µM.

In the case of CN(C)Cc1ccc(C=Cc2ccc3c(c2)C(=CNCc2ccc(O)c(O)c2)C(=O)NC3=O)cc1 [Example 736, 4-[(3,4-Dihydroxy-benzylamino)-methylene]-6-[2-(4-dimethylaminomethyl-phenyl)-vinyl]-4H-isoquinoline-1,3-dione], the IC50 ([1]; 3 days) is reported as 20.5 µM, the IC50 ([2]; 3 days) is reported as 11.5 µM and the IC50 ([3]; 3 days) is reported as > 50 µM. The IC50 [4, 12] was 39.9 µM, the IC50 [5, 13] was 0.84 µM and the IC50 [6, 14] was 21.1 µM. The IC50 [7, 15] was > 50 µM.

In the case of CCCN(Cc1ccc(NC=C2C(=O)NC(=O)c3ccccc32)cc1)CC1CC1 [Example 575, 4-({4-[(Cyclopropylmethyl-propyl-amino)-methyl]-phenylamino}-methylene)-4H-isoquinoline-1,3-dione], the IC50 ([1]; 3 days) is reported as 16.6 µM, the IC50 ([2]; 3 days) is reported as 21.8 µM and the IC50 ([3]; 3 days) is reported as 20.3 µM. The IC50 [4, 12] was 28.1 µM, the IC50 [5, 13] was 9.2 µM and the IC50 [6, 14] was > 50 µM. The IC50 [7, 15] was 11.8 µM.

For CC(c1ccc(N/C=C2\C(=O)NC(=O)c3ccc(I)cc32)cc1)N1CCCC1 (stereo not drawn) [Example 354, 6-Iodo-4-{[4-(1-pyrrolidin-1-yl-ethyl)-phenylamino]-methylene}-4H-isoquinoline-1,3-dione], the IC50 ([1]; three days) was 4.8 µM, the IC50 ([2]; three days) was 3.5 µM and the IC50 ([3]; three days) was 0.94 µM. It also gave an IC50 [4, 8] of 8.6 µM, an IC50 [5, 9] of 0.23 µM and an IC50 [6, 10] of 5 µM. For the same compound, the IC50 [7, 11] was > 50 µM.

In the case of O=C1NC(=O)c2ccc(N3Cc4ccccc4C3)cc2C1=CNCc1ccc(O)c(O)c1 [Example 610, 6-(1,3-Dihydro-isoindol-2-yl)-4-[(3,4-dihydroxy-benzylamino)-methylene]-4H-isoquinoline-1,3-dione], the IC50 ([1]; 3 days) is reported as 9.9 µM, the IC50 ([2]; 3 days) is reported as 11.1 µM and the IC50 ([3]; 3 days) is reported as 12.2 µM. For the same compound, the IC50 [4, 12] was 27 µM, the IC50 [5, 13] was 0.38 µM and the IC50 [6, 14] was 2.5 µM. It also gave an IC50 [7, 15] of 3.5 µM.
